Reference: PubChem BioAssay (NCI)
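Cells were grown in 96-well plates and exposed to each compound for 48 hours at five concentrations; endpoints were interpolated linearly between bracketing concentrations, or set to the highest concentration if not reached. GI50 marks 50% less growth. TGI: total growth inhibition.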

How the values were obtained:
Assay in all cases: NCI anticancer screen, dose series, 48 h
SK-OV-3 ovarian = system: SK-OV-3 ovarian
PC-3 prostate = system: PC-3 prostate
SW-620 colon = system: SW-620 colon
CAKI-1 renal = system: CAKI-1 renal
IGROV1 ovarian = system: IGROV1 ovarian
NCI-H522 lung = system: NCI-H522 lung
OVCAR-8 ovarian = system: OVCAR-8 ovarian
HCT-116 colon = system: HCT-116 colon
MOLT-4 leukemia = system: MOLT-4 leukemia
MDA-MB-435 = system: MDA-MB-435
NCI-H226 lung = system: NCI-H226 lung
SNB-75 CNS = system: SNB-75 CNS
UACC-62 melanoma = system: UACC-62 melanoma
A498 renal = system: A498 renal
UACC-257 melanoma = system: UACC-257 melanoma
NCI-H23 lung = system: NCI-H23 lung
SF-268 CNS = system: SF-268 CNS
SN12C renal = system: SN12C renal
OVCAR-5 ovarian = system: OVCAR-5 ovarian
COLO 205 colon = system: COLO 205 colon
HCT-15 colon = system: HCT-15 colon
MCF7 breast = system: MCF7 breast
LOX IMVI melanoma = system: LOX IMVI melanoma
NCI/ADR-RES ovarian = system: NCI/ADR-RES ovarian
SK-MEL-5 melanoma = system: SK-MEL-5 melanoma
UO-31 renal = system: UO-31 renal
EKVX NSCLC = system: EKVX NSCLC
MDA-MB-231 breast = system: MDA-MB-231 breast
HL-60(TB) leukemia = system: HL-60(TB) leukemia
OVCAR-3 ovarian = system: OVCAR-3 ovarian
RXF 393 renal = system: RXF 393 renal
TK-10 renal = system: TK-10 renal
HOP-92 NSCLC = system: HOP-92 NSCLC
BT-549 breast = system: BT-549 breast
T-47D breast = system: T-47D breast
SK-MEL-28 melanoma = system: SK-MEL-28 melanoma
SF-295 CNS = system: SF-295 CNS
HOP-62 NSCLC = system: HOP-62 NSCLC
HCC-2998 colon = system: HCC-2998 colon
U251 CNS = system: U251 CNS
KM12 colon = system: KM12 colon
SNB-19 CNS = system: SNB-19 CNS
M14 melanoma = system: M14 melanoma
SF-539 CNS = system: SF-539 CNS
A549 NSCLC = system: A549 NSCLC
SR leukemia = system: SR leukemia
HS 578T breast = system: HS 578T breast
OVCAR-4 ovarian = system: OVCAR-4 ovarian
DU-145 prostate = system: DU-145 prostate
CCRF-CEM leukemia = system: CCRF-CEM leukemia
NCI-H460 lung = system: NCI-H460 lung
ACHN renal = system: ACHN renal
K-562 leukemia = system: K-562 leukemia
SK-MEL-2 melanoma = system: SK-MEL-2 melanoma
RPMI-8226 leukemia = system: RPMI-8226 leukemia

## COc1ccc(-c2csc(NC(=O)CSc3nc(C)c(-c4ccccc4)n3Nc3ccccc3)n2)cc1
SK-OV-3 ovarian
  GI50: > 100 µM
  TGI: > 100 µM
PC-3 prostate
  GI50: 5.16 µM
  TGI: > 100 µM
SW-620 colon
  GI50: 51.9 µM
  TGI: > 100 µM
CAKI-1 renal
  GI50: 2.5 µM
  TGI: > 100 µM
IGROV1 ovarian
  GI50: 4.25 µM
  TGI: > 100 µM
NCI-H522 lung
  GI50: 3.35 µM
  TGI: > 100 µM
OVCAR-8 ovarian
  GI50: 3.48 µM
  TGI: > 100 µM
HCT-116 colon
  GI50: 5.32 µM
  TGI: > 100 µM
MOLT-4 leukemia
  GI50: 3.78 µM
  TGI: > 100 µM
MDA-MB-435
  GI50: 5.77 µM
  TGI: > 100 µM
NCI-H226 lung
  GI50: > 100 µM
  TGI: > 100 µM
SNB-75 CNS
  GI50: 12.8 µM
  TGI: > 100 µM
UACC-62 melanoma
  GI50: 7.35 µM
  TGI: > 100 µM
A498 renal
  GI50: 31.2 µM
  TGI: > 100 µM
UACC-257 melanoma
  GI50: > 100 µM
  TGI: > 100 µM
NCI-H23 lung
  GI50: 4.96 µM
  TGI: > 100 µM
SF-268 CNS
  GI50: 9.05 µM
  TGI: > 100 µM
SN12C renal
  GI50: 4.03 µM
  TGI: > 100 µM
OVCAR-5 ovarian
  GI50: > 100 µM
  TGI: > 100 µM
COLO 205 colon
  GI50: 9.7 µM
  TGI: > 100 µM
HCT-15 colon
  GI50: 6.9 µM
  TGI: > 100 µM
MCF7 breast
  GI50: 8.25 µM
  TGI: > 100 µM
LOX IMVI melanoma
  GI50: 5.85 µM
  TGI: > 100 µM
NCI/ADR-RES ovarian
  GI50: 4.21 µM
  TGI: > 100 µM
SK-MEL-5 melanoma
  GI50: 4.45 µM
  TGI: > 100 µM
UO-31 renal
  GI50: 1.89 µM
  TGI: > 100 µM
EKVX NSCLC
  GI50: 3.8 µM
  TGI: > 100 µM
MDA-MB-231 breast
  GI50: 13.3 µM
  TGI: > 100 µM
HL-60(TB) leukemia
  GI50: 6.29 µM
  TGI: > 100 µM
OVCAR-3 ovarian
  GI50: 9.61 µM
  TGI: > 100 µM
RXF 393 renal
  GI50: > 100 µM
  TGI: > 100 µM
TK-10 renal
  GI50: > 100 µM
  TGI: > 100 µM
HOP-92 NSCLC
  GI50: > 100 µM
  TGI: > 100 µM
BT-549 breast
  GI50: 8.93 µM
  TGI: > 100 µM
T-47D breast
  GI50: 2.82 µM
  TGI: 7.49 µM
SK-MEL-28 melanoma
  GI50: > 100 µM
  TGI: > 100 µM
SF-295 CNS
  GI50: 0.566 µM
  TGI: > 100 µM
HOP-62 NSCLC
  GI50: 47.8 µM
  TGI: > 100 µM
HCC-2998 colon
  GI50: > 100 µM
  TGI: > 100 µM
U251 CNS
  GI50: > 100 µM
  TGI: > 100 µM
KM12 colon
  GI50: 5.71 µM
  TGI: > 100 µM
SNB-19 CNS
  GI50: > 100 µM
  TGI: > 100 µM
M14 melanoma
  GI50: 8.66 µM
  TGI: > 100 µM
SF-539 CNS
  GI50: > 100 µM
  TGI: > 100 µM
A549 NSCLC
  GI50: 4.87 µM
  TGI: > 100 µM
SR leukemia
  GI50: 5.47 µM
  TGI: > 100 µM
HS 578T breast
  GI50: 6.69 µM
  TGI: > 100 µM
OVCAR-4 ovarian
  GI50: 8.24 µM
  TGI: > 100 µM
DU-145 prostate
  GI50: 18 µM
  TGI: > 100 µM
CCRF-CEM leukemia
  GI50: 3.92 µM
  TGI: > 100 µM
NCI-H460 lung
  GI50: 7.41 µM
  TGI: > 100 µM
ACHN renal
  GI50: > 100 µM
  TGI: > 100 µM
K-562 leukemia
  GI50: 5.29 µM
  TGI: > 100 µM
SK-MEL-2 melanoma
  GI50: 9.52 µM
  TGI: > 100 µM
RPMI-8226 leukemia
  GI50: 6.74 µM
  TGI: > 100 µM
